# Test results taken from PubChem BioAssay AID651880 (NMMLSC, 2012).
# Activity calls are given as the source filed them. The rule behind the calls is not given here.
# Target: Botulinum neurotoxin type F light chain protease (Clostridium botulinum)
# Assay: Botulinum neurotoxin F protease inhibition, flow cytometry cleavage assay, confirmatory dose response (AID 651880)
# Conditions: multiplex microsphere flow cytometry protease cleavage assay
row,SMILES,EC50
1,CNC(=O)c1ccc(N2N=C(c3ccccc3)CC2c2ccccc2)cc1 (centres undefined),> 20 µM (inactive)
2,COc1ccc(N2N=C(c3ccncc3)CC2c2ccccc2)cc1 (centres undefined),> 20 µM (inactive)
3,CSc1ccc(C2=NN(c3ccccc3)C(c3ccccc3)C2)cc1 (centres undefined),> 20 µM (inactive)
4,c1ccc(C2CC(c3cccnc3)=NN2c2ccccc2)cc1 (centres undefined),> 20 µM (inactive)
5,NS(=O)(=O)c1ccc(N2N=C(c3ccccc3)CC2c2ccccc2)cc1 (centres undefined),> 20 µM (inactive)
6,CSc1ccc(C2=NN(c3ccc(C(=O)N4CCOCC4)cc3)C(c3ccccc3)C2)cc1 (centres undefined),> 20 µM (inactive)
7,COc1ccc(N2N=C(c3cccnc3)CC2c2ccccc2)cc1 (centres undefined),> 20 µM (inactive)
8,COc1ccc(N2N=C(c3ccc(SC)cc3)CC2c2ccccc2)cc1 (centres undefined),> 20 µM (inactive)
9,c1ccc(C2CC(c3ccncc3)=NN2c2ccccc2)cc1 (centres undefined),> 20 µM (inactive)
10,CS(=O)(=O)c1ccc(N2N=C(c3ccncc3)CC2c2ccccc2)cc1 (centres undefined),> 20 µM (inactive)
11,CSc1ccc(C2=NN(c3ccc(C(=O)N4CCCCC4)cc3)C(c3ccccc3)C2)cc1 (centres undefined),> 20 µM (inactive)
12,CC(C)NC(=O)c1ccc(N2N=C(c3ccccc3)CC2c2ccccc2)cc1 (centres undefined),> 20 µM (inactive)
13,O=C(c1ccc(N2N=C(c3ccccc3)CC2c2ccccc2)cc1)N1CCCCC1 (centres undefined),> 20 µM (inactive)
14,c1ccc(C2CC(c3ccccn3)=NN2c2ccccc2)cc1 (centres undefined),> 20 µM (inactive)
15,NS(=O)(=O)c1ccc(N2N=C(c3cccnc3)CC2c2ccccc2)cc1 (centres undefined),> 20 µM (inactive)
16,O=[N+]([O-])c1ccc(N2N=C(c3ccccc3)CC2c2ccccc2)cc1 (centres undefined),0.2 µM
17,O=C(c1ccc(N2N=C(c3ccccc3)CC2c2ccccc2)cc1)N1CCOCC1 (centres undefined),> 20 µM (inactive)
18,CC(C)CNC(=O)c1ccc(N2N=C(c3ccccc3)CC2c2ccccc2)cc1 (centres undefined),> 20 µM (inactive)
19,CSc1ccc(C2=NN(c3ccc(S(N)(=O)=O)cc3)C(c3ccccc3)C2)cc1 (centres undefined),> 20 µM (inactive)
20,COc1ccc(N2N=C(c3ccccn3)CC2c2ccccc2)cc1 (centres undefined),> 20 µM (inactive)
21,CSc1ccc(C2=NN(c3ccc([N+](=O)[O-])cc3)C(c3ccccc3)C2)cc1 (centres undefined),0.05 µM
22,CNC(=O)c1ccc(N2N=C(c3ccc(SC)cc3)CC2c2ccccc2)cc1 (centres undefined),> 20 µM (inactive)
23,c1ccc(C2=NN(c3ccccc3)C(c3ccccc3)C2)cc1 (centres undefined),> 20 µM (inactive)
24,NS(=O)(=O)c1ccc(N2N=C(c3ccncc3)CC2c2ccccc2)cc1 (centres undefined),> 20 µM (inactive)
25,CSc1ccc(C2=NN(c3ccc(S(C)(=O)=O)cc3)C(c3ccccc3)C2)cc1 (centres undefined),> 20 µM (inactive)
26,CS(=O)(=O)c1ccc(N2N=C(c3ccccc3)CC2c2ccccc2)cc1 (centres undefined),> 20 µM (inactive)
27,COc1ccc(N2N=C(c3ccccc3)CC2c2ccccc2)cc1 (centres undefined),> 20 µM (inactive)
28,CS(=O)(=O)c1ccc(N2N=C(c3cccnc3)CC2c2ccccc2)cc1 (centres undefined),> 20 µM (inactive)
29,c1ccc(-c2cc(-c3ccccc3)n(-c3ccccc3)n2)cc1,> 20 µM (inactive)
